From ChEMBL document CHEMBL3616395, “Discovery of 4-arylamido 3-methyl isoxazole derivatives as novel FMS kinase inhibitors” (Eur J Med Chem, 2015)
One block for each compound: values may come before it. Active and inactive are the calls of the source. The rule behind the calls is not given here.

Columns and labels:
[1] = test system: U-937; assay: Antiproliferative activity against human U937 cells after 24 hrs by MTT assay; format: functional; conditions: U-937, 24 h
[2] = test system: A375P; assay: Antiproliferative activity against human A375P cells after 24 hrs by MTT assay; format: functional, cell-based
[3] = Cytotoxicity against human HS27 cells after 24 hrs by MTT assay; format: cell-based
[4] = target: RAC-alpha serine/threonine-protein kinase (Homo sapiens) (UniProt P31749); assay: Inhibition of AKT1 (unknown origin) at 10 uM after 40 mins by scintillation counting analysis
[5] = target: ALK tyrosine kinase receptor (Homo sapiens) (UniProt Q9UM73); assay: Inhibition of ALK (unknown origin) at 10 uM after 40 mins by scintillation counting analysis
[6] = target: Aurora kinase A (Homo sapiens) (UniProt O14965); assay: Inhibition of Aurora A (unknown origin) at 10 uM after 40 mins by scintillation counting analysis
Sequence of Aurora kinase A (Homo sapiens) (O14965 whole entry): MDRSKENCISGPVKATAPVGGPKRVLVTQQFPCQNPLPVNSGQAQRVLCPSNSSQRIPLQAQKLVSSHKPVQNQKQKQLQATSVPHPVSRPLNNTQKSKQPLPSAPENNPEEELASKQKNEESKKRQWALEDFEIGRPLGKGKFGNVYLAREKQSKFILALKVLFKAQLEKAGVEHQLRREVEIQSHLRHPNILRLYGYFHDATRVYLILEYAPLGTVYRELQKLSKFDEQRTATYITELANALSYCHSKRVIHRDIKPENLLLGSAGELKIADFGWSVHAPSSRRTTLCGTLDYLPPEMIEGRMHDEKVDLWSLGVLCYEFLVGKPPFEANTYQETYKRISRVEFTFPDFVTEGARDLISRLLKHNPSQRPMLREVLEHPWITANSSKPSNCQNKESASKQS

[7] = target: T1, Serine/threonine-protein kinase B-raf (Homo sapiens, UniProt P15056); assay: Inhibition of BRAF (unknown origin) at 10 uM after 40 mins by scintillation counting analysis
T1 sequence (P15056 whole entry): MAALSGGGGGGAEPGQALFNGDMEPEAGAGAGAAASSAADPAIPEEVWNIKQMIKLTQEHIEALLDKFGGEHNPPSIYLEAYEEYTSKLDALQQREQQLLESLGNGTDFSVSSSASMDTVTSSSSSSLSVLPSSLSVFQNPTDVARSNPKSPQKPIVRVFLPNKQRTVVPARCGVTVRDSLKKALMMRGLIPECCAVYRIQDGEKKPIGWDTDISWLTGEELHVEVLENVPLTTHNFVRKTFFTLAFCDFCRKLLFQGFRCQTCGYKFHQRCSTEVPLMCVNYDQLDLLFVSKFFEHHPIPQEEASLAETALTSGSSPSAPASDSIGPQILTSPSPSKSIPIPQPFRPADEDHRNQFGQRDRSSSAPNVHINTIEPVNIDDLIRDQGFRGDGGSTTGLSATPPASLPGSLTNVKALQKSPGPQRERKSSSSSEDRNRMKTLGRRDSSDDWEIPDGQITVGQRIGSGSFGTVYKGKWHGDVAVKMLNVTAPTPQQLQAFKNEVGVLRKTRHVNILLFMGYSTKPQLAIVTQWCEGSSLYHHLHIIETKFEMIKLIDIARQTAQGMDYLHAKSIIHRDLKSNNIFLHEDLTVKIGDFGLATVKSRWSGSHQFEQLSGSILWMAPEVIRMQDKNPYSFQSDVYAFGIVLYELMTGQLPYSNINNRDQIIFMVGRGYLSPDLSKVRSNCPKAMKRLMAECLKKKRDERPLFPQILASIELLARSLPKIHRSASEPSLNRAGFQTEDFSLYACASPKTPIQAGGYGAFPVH

[8] = test system: Serine/threonine-protein kinase B-raf (Homo sapiens), P15056 [V600E]; assay: Inhibition of BRAF V599E mutant (unknown origin) at 10 uM after 40 mins by scintillation counting analysis
Sequence of Serine/threonine-protein kinase B-raf (Homo sapiens), P15056 [V600E] (P15056 whole entry V600E): as the sequence (P15056 whole entry) above, with V600E counted along it

[9] = target: Mast/stem cell growth factor receptor Kit (Homo sapiens) (UniProt P10721); assay: Inhibition of c-Kit (unknown origin) at 10 uM after 40 mins by scintillation counting analysis
[10] = target: Hepatocyte growth factor receptor (Homo sapiens) (UniProt P08581); assay: Inhibition of c-MET (unknown origin) at 10 uM after 40 mins by scintillation counting analysis
[11] = target: Cyclin-dependent kinase 1/cyclin B (Homo sapiens) (UniProt P06493+P14635+Q8WWL7+O95067); assay: Inhibition of CDK1/cyclin B (unknown origin) at 10 uM after 40 mins by scintillation counting analysis; format: protein-complex assay
[12] = target: Cyclin-dependent kinase 2/cyclin E (Homo sapiens) (UniProt P24864+P24941+O96020); assay: Inhibition of CDK2/cyclin E (unknown origin) at 10 uM after 40 mins by scintillation counting analysis; format: protein-complex assay
[13] = target: Epidermal growth factor receptor (Homo sapiens) (UniProt P00533); assay: Inhibition of EGFR (unknown origin) at 10 uM after 40 mins by scintillation counting analysis
[14] = target: Mitogen-activated protein kinase 3 (Homo sapiens) (UniProt P27361); assay: Inhibition of ErK1 (unknown origin) at 10 uM after 40 mins by scintillation counting analysis
[15] = target: Focal adhesion kinase 1 (Homo sapiens) (UniProt Q05397); assay: Inhibition of FAK (unknown origin) at 10 uM after 40 mins by scintillation counting analysis
[16] = target: Fibroblast growth factor receptor 2 (Homo sapiens) (UniProt P21802); assay: Inhibition of FGFR2 (unknown origin) at 10 uM after 40 mins by scintillation counting analysis
[17] = target: Fibroblast growth factor receptor 3 (Homo sapiens) (UniProt P22607); assay: Inhibition of FGFR3 (unknown origin) at 10 uM after 40 mins by scintillation counting analysis
[18] = target: Receptor-type tyrosine-protein kinase FLT3 (Homo sapiens) (UniProt P36888); assay: Inhibition of FLT3 (unknown origin) at 10 uM after 40 mins by scintillation counting analysis
[19] = target: T2, Macrophage colony-stimulating factor 1 receptor (Homo sapiens, UniProt P07333); assay: Inhibition of FMS (unknown origin) at 10 uM after 40 mins by scintillation counting analysis
T2 sequence (P07333 whole entry): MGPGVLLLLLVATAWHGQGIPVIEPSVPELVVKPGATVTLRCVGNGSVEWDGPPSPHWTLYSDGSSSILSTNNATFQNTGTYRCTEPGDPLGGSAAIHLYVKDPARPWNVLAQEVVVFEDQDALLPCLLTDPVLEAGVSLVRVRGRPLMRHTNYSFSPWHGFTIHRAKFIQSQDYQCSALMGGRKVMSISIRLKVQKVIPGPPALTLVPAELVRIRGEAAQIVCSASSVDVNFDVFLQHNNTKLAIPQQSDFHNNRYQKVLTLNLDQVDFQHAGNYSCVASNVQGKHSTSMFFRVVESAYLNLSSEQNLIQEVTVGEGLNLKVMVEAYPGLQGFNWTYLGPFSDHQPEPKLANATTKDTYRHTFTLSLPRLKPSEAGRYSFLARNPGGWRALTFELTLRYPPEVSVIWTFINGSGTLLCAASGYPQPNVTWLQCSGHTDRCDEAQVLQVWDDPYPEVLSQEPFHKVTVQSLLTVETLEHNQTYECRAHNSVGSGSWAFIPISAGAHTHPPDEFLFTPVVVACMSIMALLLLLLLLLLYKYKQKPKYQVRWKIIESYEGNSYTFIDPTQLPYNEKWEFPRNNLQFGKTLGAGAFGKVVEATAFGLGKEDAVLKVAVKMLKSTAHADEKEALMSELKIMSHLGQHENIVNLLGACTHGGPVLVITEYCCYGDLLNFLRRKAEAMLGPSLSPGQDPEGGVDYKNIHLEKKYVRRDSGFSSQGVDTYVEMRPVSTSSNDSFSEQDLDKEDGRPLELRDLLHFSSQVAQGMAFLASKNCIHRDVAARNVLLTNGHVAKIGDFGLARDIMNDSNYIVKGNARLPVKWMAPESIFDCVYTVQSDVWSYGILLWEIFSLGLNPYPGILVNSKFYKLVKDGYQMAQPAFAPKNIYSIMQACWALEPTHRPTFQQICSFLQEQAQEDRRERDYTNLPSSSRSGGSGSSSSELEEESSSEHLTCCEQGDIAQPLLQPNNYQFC

[20] = target: Glycogen synthase kinase-3 beta (Homo sapiens) (UniProt P49841); assay: Inhibition of GSK3b (unknown origin) at 10 uM after 40 mins by scintillation counting analysis
[21] = target: Insulin-like growth factor 1 receptor (Homo sapiens) (UniProt P08069); assay: Inhibition of IGF1R (unknown origin) at 10 uM after 40 mins by scintillation counting analysis
[22] = target: Tyrosine-protein kinase JAK3 (Homo sapiens) (UniProt P52333); assay: Inhibition of Jak3 (unknown origin) at 10 uM after 40 mins by scintillation counting analysis
[23] = target: Mitogen-activated protein kinase 10 (Homo sapiens) (UniProt P53779); assay: Inhibition of JNK3 (unknown origin) at 10 uM after 40 mins by scintillation counting analysis
[24] = target: Vascular endothelial growth factor receptor 2 (Homo sapiens) (UniProt P35968); assay: Inhibition of VEGFR2 (unknown origin) at 10 uM after 40 mins by scintillation counting analysis
[25] = target: T3, Tyrosine-protein kinase Lyn (Homo sapiens, UniProt P07948); assay: Inhibition of Lyn (unknown origin) at 10 uM after 40 mins by scintillation counting analysis
[26] = target: Dual specificity mitogen-activated protein kinase kinase 1 (Homo sapiens) (UniProt Q02750); assay: Inhibition of MEK1 (unknown origin) at 10 uM after 40 mins by scintillation counting analysis
[27] = target: T4, Serine/threonine-protein kinase mTOR (Homo sapiens, UniProt P42345); assay: Inhibition of mTOR (unknown origin) at 10 uM after 40 mins by scintillation counting analysis
[28] = target: cAMP-dependent protein kinase (PKA) (Homo sapiens) (UniProt P22694+P17612+P22612); assay: Inhibition of PKA (unknown origin) at 10 uM after 40 mins by scintillation counting analysis; format: protein assay
[29] = target: Serine/threonine-protein kinase PLK1 (Homo sapiens) (UniProt P53350); assay: Inhibition of PLK1 (unknown origin) at 10 uM after 40 mins by scintillation counting analysis
[30] = target: T5, RAF proto-oncogene serine/threonine-protein kinase (Homo sapiens, UniProt P04049); assay: Inhibition of RAF1 (unknown origin) at 10 uM after 40 mins by scintillation counting analysis
T5 sequence (P04049 whole entry): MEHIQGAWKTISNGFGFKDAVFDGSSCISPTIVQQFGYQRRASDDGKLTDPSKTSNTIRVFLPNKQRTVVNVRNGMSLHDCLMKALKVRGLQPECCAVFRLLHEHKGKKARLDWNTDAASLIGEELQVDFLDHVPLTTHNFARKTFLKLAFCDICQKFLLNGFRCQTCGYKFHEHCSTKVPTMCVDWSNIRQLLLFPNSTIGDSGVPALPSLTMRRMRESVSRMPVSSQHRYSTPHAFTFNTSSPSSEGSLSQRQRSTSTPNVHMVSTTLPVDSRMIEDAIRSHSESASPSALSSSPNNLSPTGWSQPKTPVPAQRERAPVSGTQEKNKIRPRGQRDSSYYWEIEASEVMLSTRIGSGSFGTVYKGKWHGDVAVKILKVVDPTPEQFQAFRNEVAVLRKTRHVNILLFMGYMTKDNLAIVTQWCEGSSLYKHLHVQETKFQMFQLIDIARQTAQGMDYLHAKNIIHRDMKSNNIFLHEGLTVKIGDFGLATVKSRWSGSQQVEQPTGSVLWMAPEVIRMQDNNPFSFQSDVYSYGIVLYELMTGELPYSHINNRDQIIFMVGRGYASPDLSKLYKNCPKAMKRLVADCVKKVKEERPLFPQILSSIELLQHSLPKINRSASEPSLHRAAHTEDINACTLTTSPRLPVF

[31] = target: Macrophage-stimulating protein receptor (Homo sapiens) (UniProt Q04912); assay: Inhibition of RON (unknown origin) at 10 uM after 40 mins by scintillation counting analysis
Sequence of Macrophage-stimulating protein receptor (Homo sapiens) (Q04912 25-304 limits assumed): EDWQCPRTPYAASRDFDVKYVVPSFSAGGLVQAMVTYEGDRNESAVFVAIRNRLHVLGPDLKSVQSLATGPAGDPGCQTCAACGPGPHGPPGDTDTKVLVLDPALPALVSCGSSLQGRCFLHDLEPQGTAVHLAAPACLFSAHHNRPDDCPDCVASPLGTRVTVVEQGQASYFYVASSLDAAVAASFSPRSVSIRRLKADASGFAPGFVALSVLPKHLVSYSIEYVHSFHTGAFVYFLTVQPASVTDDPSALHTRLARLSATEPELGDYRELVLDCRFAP
Sequence of Macrophage-stimulating protein receptor (Homo sapiens) (Q04912 310-1400 limits assumed): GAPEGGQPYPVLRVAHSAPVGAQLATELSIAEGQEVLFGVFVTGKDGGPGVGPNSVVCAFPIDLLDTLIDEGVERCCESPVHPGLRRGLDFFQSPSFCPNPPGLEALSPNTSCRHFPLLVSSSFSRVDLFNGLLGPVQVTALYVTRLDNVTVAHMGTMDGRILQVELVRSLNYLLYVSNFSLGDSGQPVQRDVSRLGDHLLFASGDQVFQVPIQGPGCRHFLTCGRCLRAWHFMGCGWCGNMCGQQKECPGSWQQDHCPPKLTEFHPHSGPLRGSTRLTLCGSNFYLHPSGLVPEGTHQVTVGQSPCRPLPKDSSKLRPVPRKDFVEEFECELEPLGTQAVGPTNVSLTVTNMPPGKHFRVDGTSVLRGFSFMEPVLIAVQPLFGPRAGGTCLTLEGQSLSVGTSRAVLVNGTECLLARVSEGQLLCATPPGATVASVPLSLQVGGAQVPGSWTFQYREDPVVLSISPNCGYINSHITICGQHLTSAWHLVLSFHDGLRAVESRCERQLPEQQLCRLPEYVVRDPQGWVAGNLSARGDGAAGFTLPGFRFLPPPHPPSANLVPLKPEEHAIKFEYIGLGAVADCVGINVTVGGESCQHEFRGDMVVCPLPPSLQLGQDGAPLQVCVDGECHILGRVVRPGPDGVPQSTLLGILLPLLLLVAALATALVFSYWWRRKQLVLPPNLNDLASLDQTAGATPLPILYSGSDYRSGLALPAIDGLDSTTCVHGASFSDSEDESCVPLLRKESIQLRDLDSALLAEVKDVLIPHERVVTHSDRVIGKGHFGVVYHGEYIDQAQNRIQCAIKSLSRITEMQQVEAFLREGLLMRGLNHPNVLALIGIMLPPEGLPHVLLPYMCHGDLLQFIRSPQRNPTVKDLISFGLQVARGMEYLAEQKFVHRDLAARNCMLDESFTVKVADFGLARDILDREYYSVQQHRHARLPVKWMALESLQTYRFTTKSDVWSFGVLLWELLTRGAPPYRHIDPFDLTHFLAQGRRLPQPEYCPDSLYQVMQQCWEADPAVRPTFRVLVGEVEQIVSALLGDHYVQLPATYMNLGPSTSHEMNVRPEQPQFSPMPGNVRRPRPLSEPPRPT

[32] = target: Proto-oncogene tyrosine-protein kinase ROS (Homo sapiens) (UniProt P08922); assay: Inhibition of ROS1 (unknown origin) at 10 uM after 40 mins by scintillation counting analysis
[33] = target: Tyrosine-protein kinase SYK (Homo sapiens) (UniProt P43405); assay: Inhibition of SYK (unknown origin) at 10 uM after 40 mins by scintillation counting analysis
[34] = target: T1, Serine/threonine-protein kinase B-raf; assay: Inhibition of BRAF (unknown origin) after 40 mins by scintillation counting analysis
[35] = target: Serine/threonine-protein kinase B-raf (Homo sapiens, UniProt P15056, V600E); assay: Inhibition of BRAF V599E mutant (unknown origin) after 40 mins by scintillation counting analysis
[36] = target: T2, Macrophage colony-stimulating factor 1 receptor; assay: Inhibition of FMS (unknown origin) after 40 mins by scintillation counting analysis
[37] = target: T3, Tyrosine-protein kinase Lyn; assay: Inhibition of Lyn (unknown origin) after 40 mins by scintillation counting analysis
Target sequence in this assay (P07948 whole entry): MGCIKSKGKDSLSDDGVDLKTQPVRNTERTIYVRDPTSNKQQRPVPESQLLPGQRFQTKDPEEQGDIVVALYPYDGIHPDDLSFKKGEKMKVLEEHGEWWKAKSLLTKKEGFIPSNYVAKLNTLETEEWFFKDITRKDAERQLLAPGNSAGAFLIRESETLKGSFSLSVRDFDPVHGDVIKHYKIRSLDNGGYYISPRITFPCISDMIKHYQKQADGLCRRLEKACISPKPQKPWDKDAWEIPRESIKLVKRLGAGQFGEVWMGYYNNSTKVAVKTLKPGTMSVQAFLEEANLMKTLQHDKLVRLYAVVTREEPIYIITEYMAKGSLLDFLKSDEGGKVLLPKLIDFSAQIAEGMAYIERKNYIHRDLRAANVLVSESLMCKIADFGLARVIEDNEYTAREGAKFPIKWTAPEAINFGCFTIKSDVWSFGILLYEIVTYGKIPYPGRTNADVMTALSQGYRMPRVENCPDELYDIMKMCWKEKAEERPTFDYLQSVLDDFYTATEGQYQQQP

[38] = target: T5, RAF proto-oncogene serine/threonine-protein kinase; assay: Inhibition of C-Raf (unknown origin) after 40 mins by scintillation counting analysis
[39] = target: T4, Serine/threonine-protein kinase mTOR; assay: Inhibition of mTOR (unknown origin) after 40 mins by scintillation counting analysis

Compound: Cc1ccc(NC(=O)Nc2cccc(C(F)(F)F)c2)cc1NC(=O)c1cnoc1C
GI50 [1]: > 30 µM
Activity [2]: inactive
GI50 at 24 h [3]: > 30 µM

Compound: Cc1cc(NC(=O)Nc2cc(Cl)cc(Cl)c2)ccc1NC(=O)c1cnoc1C
GI50 [1]: > 30 µM
Activity [2]: inactive
GI50 at 24 h [3]: > 30 µM

Compound: Cc1ccc(NC(=O)Nc2cccc(Cl)c2)cc1NC(=O)c1cnoc1C
GI50 [1]: > 30 µM
Activity [2]: inactive
GI50 at 24 h [3]: > 30 µM

Compound: O=c1cc(N2CCOCC2)oc2c(-c3ccccc3)cccc12 [LY-294002]
IC50 [39]: 9.9 µM

Compound: Cc1ccc(NC(=O)Nc2ccccc2F)cc1NC(=O)c1cnoc1C
GI50 [1]: > 30 µM
Activity [2]: inactive
GI50 at 24 h [3]: > 30 µM

Compound: Cc1cc(NC(=O)Nc2ccc(Cl)cc2)ccc1NC(=O)c1cnoc1C
GI50 [1]: > 30 µM
Activity [2]: inactive
GI50 at 24 h [3]: > 30 µM

Compound: Cc1ccc(NC(=O)c2ccc(-c3ccccc3)cc2)cc1NC(=O)c1cnoc1C
GI50 [1]: > 30 µM
Activity [2]: inactive
GI50 at 24 h [3]: > 30 µM

Compound: Cc1ccc(NC(=O)Nc2ccc(Cl)cc2)cc1NC(=O)c1cnoc1C
GI50 [1]: > 30 µM
Activity [2]: inactive
GI50 at 24 h [3]: > 30 µM

Now from value to compound, other results behind:

GI50 [1]: > 30 µM
Compound: Cc1cc(NC(=O)Nc2cccc(C(F)(F)F)c2)ccc1NC(=O)c1cnoc1C
Activity [2]: inactive
GI50 at 24 h [3]: > 30 µM

GI50 [1]: > 30 µM
Compound: Cc1ccc(NC(=O)c2ccccc2Sc2ccccc2C#N)cc1NC(=O)c1cnoc1C
Activity [2]: inactive
GI50 at 24 h [3]: > 30 µM

GI50 [1]: > 30 µM
Compound: Cc1cc(NC(=O)Nc2cccc(Cl)c2)ccc1NC(=O)c1cnoc1C
Activity [2]: inactive
GI50 at 24 h [3]: > 30 µM

GI50 [1]: 0.016 µM
inhibition [4]: 5.73%
inhibition [5]: 0%
inhibition [6]: 0%
inhibition [7]: 61.2%
inhibition [8]: 87.9%
inhibition [9]: 7.5%
inhibition [10]: 0%
inhibition [11]: 0%
inhibition [12]: 1.85%
inhibition [13]: 4.68%
inhibition [14]: 7.54%
inhibition [15]: 0%
inhibition [16]: 3.6%
inhibition [17]: 0%
inhibition [18]: 2.12%
inhibition [19]: 98.7%
inhibition [20]: 0%
inhibition [21]: 0%
inhibition [22]: 0%
inhibition [23]: 15.3%
inhibition [24]: 8.27%
inhibition [25]: 97.8%
inhibition [26]: 0%
inhibition [27]: 1.14%
inhibition [28]: 0%
inhibition [29]: 0%
inhibition [30]: 95.9%
inhibition [31]: 0%
inhibition [32]: 0%
inhibition [33]: 3.81%
IC50 [34]: 5.96 µM
IC50 [35]: 0.668 µM
IC50 [36]: 0.00995 µM
IC50 [37]: 0.0659 µM
IC50 [38]: 0.0448 µM
Compound: Cc1ccc(NC(=O)c2cc(N3CCN(C)CC3)cc(C(F)(F)F)c2)cc1NC(=O)c1cnoc1C
Activity [2]: inactive
GI50 at 24 h [3]: > 30 µM

GI50 [1]: 0.026 µM
Compound: Cc1ccc(NC(=O)c2cc(-n3cncc3C)cc(C(F)(F)F)c2)cc1NC(=O)c1cnoc1C
Activity [2]: inactive
GI50 at 24 h [3]: > 30 µM

GI50 [1]: 0.049 µM
Compound: Cc1cn(-c2cc(C(=O)Nc3ccc(C)c(NC(=O)c4cnoc4C)c3)cc(C(F)(F)F)c2)cn1
Activity [2]: inactive
GI50 at 24 h [3]: > 30 µM

GI50 [1]: 0.139 µM
Compound: Cc1ccc(NC(=O)c2cnn(-c3ccccc3)c2C(F)(F)F)cc1NC(=O)c1cnoc1C
Activity [2]: inactive
GI50 at 24 h [3]: > 30 µM

GI50 [1]: 3.1 µM
Compound: Cc1cc(C)cc(C(=O)Nc2ccc(C)c(NC(=O)c3cnoc3C)c2)c1
Activity [2]: inactive
GI50 at 24 h [3]: > 30 µM

GI50 [1]: 1.89 µM
Compound: Cc1ccc(NC(=O)Nc2ccc(Cl)c(Cl)c2)cc1NC(=O)c1cnoc1C
Activity [2]: inactive
GI50 at 24 h [3]: > 30 µM
